Two molecules from patent publication US11612165B2, “Pesticide composition for controlling Spodoptera frugiperda” (priority 2020, dated 2023) can be followed below.

Like-named read-outs stand apart in the source and are kept apart here.

One may read the LC50 as the concentration that kills 50% of the test population.

The test system of the assay is Spodoptera frugiperda. Kind of assay: Indoor toxicity test, immersion method, larvae mortality after 24 h. Particulars: single or mixed in different ratios, 3-day-old larvae, 25° C., read-out: LC50 (95% confidence limit). It counts as in vivo. The text has this: Pesticide for test: TC of tea saponin; TC of chlorantraniliprole; TC of tolfenpyrad;
Pest for test: Spodoptera frugiperda (2-3-day-old);
Test method: immersion method: calculating the dosage of the TC according to the active ingredients, preparing the TC into a mother solution, adding clear water to dilute the mother solution to 5-7 gradient concentrations, taking clear water treatment as a control, and setting 3 repetitions for each treatment; selecting 20 larvae with basically the same growth state, putting the larvae into an experiment barrel containing pesticide liquid, covering a gauze (to prevent escape), placing in a 25° C. incubator, investing the death situations after 24 h, recording the number of the dead larvae, and processing data by DPS statistical software.

On to `CCc1nn(C)c(C(=O)NCc2ccc(Oc3ccc(C)cc3)cc2)c1Cl` [Tolfenpyrad (A), Tolfenpyrad], for which the LC50 (tolfenpyrad (A) and tea saponin (B)) is 0.563 µg/mL.
With `CNC(=O)c1cc(Cl)cc(C)c1NC(=O)c1cc(Br)nn1-c1ncccc1Cl` [Chlorantraniliprole (A), Chlorantraniliprole], for the setting “chlorantraniliprole (A) and tea saponin (B)”, the LC50 worked out at 0.283 µg/mL.
